Data taken from DBAASP.
Converted amounts (≈) assume the structure as drawn. “And” between values parts separate entries of the source, which are not always exact repeats. Equal entries are not always repeated.

Assays:
Experiment in all cases: ≥ marks a high value that may be exact or a test limit, other limits are often not marked, values filed in µg/mL are converted to µM
Bacillus subtilis DELTA = test system: Bacillus subtilis DELTA
[1] = test system: Candida albicans ATCC 200955
Candida parapsilosis = test system: Candida parapsilosis
[2] = test system: Enterococcus faecium ATCC 700221
[3] = test system: Escherichia coli ATCC 25922
[4] = test system: Escherichia coli DH5alpha
[5] = test system: Pseudomonas aeruginosa ATCC 27853
[6] = test system: Staphylococcus aureus ATCC 33591
[7] = test system: Zymomonas mobilis ATCC 10988
[8] = test system: Erwinia amylovora PMV 6076
[9] = test system: Pseudomonas syringae pv. syringae EPS 94
[10] = test system: Xanthomonas campestris pv. Vesicatoria 2133-2
[11] = test system: Klebsiella pneumoniae ATCC 13883
[12] = test system: Listeria monocytogenes ATCC 35152
[13] = test system: Staphylococcus aureus ATCC 25923
[14] = test system: Bacillus anthracis UM23-CL2
[15] = test system: Burkholderia cepacia J2540
Escherichia coli 44102 = test system: Escherichia coli 44102
[16] = test system: Staphylococcus aureus 22401
[17] = test system: Salmonella enterica subsp. enterica serovar Typhi DMST 22842
[18] = test system: Staphylococcus epidermidis ATCC 12228
Edwardsiella tarda TX1 = test system: Edwardsiella tarda TX1
Micrococcus luteus = test system: Micrococcus luteus
Staphylococcus aureus = test system: Staphylococcus aureus
Vibrio anguillarum C312 = test system: Vibrio anguillarum C312
[19] = test system: Pseudomonas aeruginosa ATCC 10419
[20] = test system: Pseudomonas aeruginosa ATCC 21625
[21] = test system: Pseudomonas aeruginosa ATCC 21630
[22] = test system: Pseudomonas aeruginosa LCCE
[23] = test system: Pseudomonas aeruginosa LCCI
[24] = test system: Pseudomonas aeruginosa LCGE
[25] = test system: Pseudomonas aeruginosa LC
[26] = test system: Salmonella enterica subsp. enterica serovar Typhimurium C77-31
[27] = test system: Staphylococcus aureus ATCC 29213
[28] = test system: Pseudomonas aeruginosa PAO1
[29] = test system: Staphylococcus aureus ATCC 43300
[30] = test system: Staphylococcus aureus LAC

In the case of CC[C@H](C)[C@H](NC(=O)[C@H](Cc1ccccc1)NC(=O)[C@H](CCCCN)NC(=O)[C@H](CC(C)C)NC(=O)[C@H](CC(C)C)NC(=O)CN)C(=O)N[C@@H](CCCCN)C(=O)N[C@@H](CCCCN)C(=O)N[C@@H](CC(C)C)C(=O)N[C@@H](CC(C)C)C(N)=O [GLLKFIKKLL], the MIC (Bacillus subtilis DELTA) is reported as 25.6 µM (≈ 30 µg/mL), the MIC [1] is reported as 9.5 µM (≈ 11.1 µg/mL) and the MIC (Candida parapsilosis) is reported as no less than 34.1 µM. The MIC [2] was 9.5 µM (≈ 11.1 µg/mL), the MIC [3] was 9.5 µM (≈ 11.1 µg/mL) and the MIC [4] was no less than 256 µM. For the same compound, the MIC [5] was 28.4 µM (≈ 33.3 µg/mL), the MIC [6] was 9.5 µM (≈ 11.1 µg/mL) and the MIC [7] was 5.97 µM (≈ 6.99 µg/mL).

In the case of CC[C@H](C)[C@H](NC(=O)[C@H](CCCCN)NC(=O)[C@H](CCCCN)NC(=O)[C@H](Cc1ccccc1)NC(=O)[C@H](CC(C)C)NC(=O)[C@H](CCCCN)NC(=O)[C@@H](N)CCCCN)C(=O)N[C@@H](CC(C)C)C(=O)N[C@@H](CCCCN)C(=O)N[C@@H](Cc1ccc(O)cc1)C(=O)N[C@@H](CC(C)C)C(=O)N[C@@H](C)C(=O)NCC(=O)N1CCC[C@H]1C(=O)N[C@@H](C)C(=O)O [KKLFKKILKYLAGPA], the MIC [8] is reported as 14.1 µM (≈ 24.3 µg/mL), the MIC [9] is reported as 14.1 µM (≈ 24.3 µg/mL) and the MIC [10] is reported as 3.54 µM (≈ 6.07 µg/mL).

CC(C)C[C@H](NC(=O)[C@@H](NC(=O)[C@H](CCC(N)=O)NC(=O)[C@H](CCCCN)NC(=O)[C@H](Cc1cnc[nH]1)NC(=O)[C@H](CC(C)C)NC(=O)[C@H](C)NC(=O)[C@@H](NC(=O)[C@H](CC(C)C)NC(=O)[C@H](CCCCN)NC(=O)[C@H](CC(C)C)NC(=O)[C@@H](N)CCCCN)C(C)C)C(C)C)C(N)=O [KLKLVALHKQVL] was tested, and the MIC [3] was 10.8 µM (≈ 15 µg/mL), the MIC [11] was 18 µM (≈ 25 µg/mL) and the MIC [12] was 14.4 µM (≈ 20 µg/mL). For the same compound, the MIC [5] was 18 µM (≈ 25 µg/mL) and the MIC [13] was 7.2 µM (≈ 9.99 µg/mL).

In the case of CC[C@H](C)[C@H](NC(=O)[C@H](CCCCN)NC(=O)[C@H](CCCCN)NC(=O)[C@H](Cc1ccccc1)NC(=O)[C@H](CC(C)C)NC(=O)[C@H](CCCCN)NC(=O)[C@H](Cc1c[nH]c2ccccc12)NC(=O)[C@@H](N)CCCCN)C(=O)N[C@@H](C)C(=O)N[C@@H](CCCCN)C(=O)N[C@@H](CCCCN)C(=O)N[C@@H](Cc1ccccc1)C(=O)N[C@@H](C)C(=O)N[C@@H](CCCCN)C(=O)N[C@@H](C)C(=O)N[C@@H](Cc1ccccc1)C(=O)N[C@H](C(=O)N[C@@H](C)C(=O)N[C@@H](CCC(=O)O)C(=O)N[C@H](C(=O)N[C@@H](CCSC)C(=O)O)[C@@H](C)CC)C(C)C [KWKLFKKIAKKFAKAFVAEIM], the MIC [14] is reported as 24.7 µM and ≥ 49.5 µM and the MIC [15] is reported as 12.4 µM (≈ 31.3 µg/mL).

CC[C@H](C)[C@H](NC(=O)[C@H](CCC(=O)O)NC(=O)[C@H](C)NC(=O)[C@H](Cc1ccccc1)NC(=O)[C@@H](N)CC(N)=O)C(=O)N[C@@H](Cc1ccccc1)C(=O)N[C@@H](C)C(=O)N[C@@H](C)C(=O)N[C@H](C(=O)N[C@@H](CC(N)=O)C(=O)N[C@@H](CCCCN)C(=O)N[C@@H](CC(C)C)C(=O)N[C@H](C(=O)N[C@@H](CCCCN)C(=O)N[C@@H](CCC(N)=O)C(=O)NCC(=O)N[C@H](C(=O)N[C@H](C(=O)N[C@@H](CCCCN)C(=O)NCC(=O)O)C(C)C)C(C)C)[C@@H](C)CC)C(C)C [NFAEIFAAVNKLIKQGVVKG] gave an MIC (Escherichia coli 44102) of 25 µM (≈ 53.7 µg/mL) and an MIC [16] of no less than 50 µM.

Compound CC(C)[C@H](NC(=O)CNC(=O)[C@@H](N)CC(N)=O)C(=O)N[C@@H](CCC(N)=O)C(=O)N1CCC[C@H]1C(=O)N[C@@H](CCCCN)C(=O)N[C@@H](Cc1ccc(O)cc1)C(=O)N[C@@H](CCCN=C(N)N)C(=O)N[C@@H](Cc1c[nH]c2ccccc12)C(=O)N[C@@H](Cc1c[nH]c2ccccc12)C(=O)N[C@@H](CCCN=C(N)N)C(=O)N[C@@H](Cc1c[nH]c2ccccc12)C(=O)N[C@@H](Cc1c[nH]c2ccccc12)C(=O)N[C@@H](CCCN=C(N)N)C(=O)N[C@@H](CCCN=C(N)N)C(=O)N[C@@H](Cc1c[nH]c2ccccc12)C(=O)N[C@@H](Cc1c[nH]c2ccccc12)C(=O)O [NGVQPKYRWWRWWRRWW] has an MIC [3] of 18.1 µM (≈ 46 µg/mL), an MIC [17] of no less than 35.7 µM and an MIC [13] greater than 35.7 µM. The MIC [18] was 9.03 µM (≈ 23 µg/mL).

Compound CC[C@H](C)[C@H](NC(=O)[C@H](Cc1cnc[nH]1)NC(=O)[C@H](CO)NC(=O)[C@@H](N)CCC(N)=O)C(=O)N[C@@H](CO)C(=O)N[C@@H](CC(C)C)C(=O)N[C@H]1CSSC[C@@H](C(=O)N[C@@H](CCCCN)C(=O)N[C@@H](Cc2ccccc2)C(=O)O)NC(=O)[C@@H]2CSSC[C@H](NC(=O)[C@H](Cc3c[nH]c4ccccc34)NC(=O)[C@H](CCCN=C(N)N)NC1=O)C(=O)N[C@H]1CSSC[C@H](NC(=O)CNC(=O)[C@H](CCCCN)NC(=O)[C@H](CC(N)=O)NC(=O)[C@H](C)NC(=O)[C@H](CCCCN)NC(=O)[C@@H]3CSSC[C@H](NC(=O)[C@H](CC(N)=O)NC1=O)C(=O)N3)C(=O)NCC(=O)N[C@@H](Cc1ccccc1)C(=O)N2 [QSHISLCRWCCNCCKANKGCGFCCKF] has an MIC (Edwardsiella tarda TX1) of 2.83 µM (≈ 8.3 µg/mL), an MIC (Micrococcus luteus) of 1.41 µM (≈ 4.15 µg/mL) and an MIC (Staphylococcus aureus) of 2.83 µM (≈ 8.3 µg/mL). For the same compound, the MIC (Vibrio anguillarum C312) was 5.66 µM (≈ 16.6 µg/mL).

CC[C@H](C)[C@H](NC(=O)[C@H](CCCCN)NC(=O)[C@H](CCCCN)NC(=O)[C@H](CC(C)C)NC(=O)[C@H](CCCN=C(N)N)NC(=O)[C@H](CCCCN)NC(=O)[C@H](CCCN=C(N)N)NC(=O)[C@@H](NC(=O)[C@H](CCCCN)NC(=O)[C@H](CCCCN)NC(=O)[C@H](CCCN=C(N)N)NC(=O)[C@H](CC(C)C)NC(=O)[C@H](CCCN=C(N)N)NC(=O)[C@H](CCCN=C(N)N)NC(=O)[C@H](Cc1ccccc1)NC(=O)[C@@H](N)CCCN=C(N)N)[C@@H](C)CC)C(N)=O [RFRRLRKKIRKRLKKI] showed an MIC [3] of 128 µM (≈ 281 µg/mL), an MIC [19] of no less than 256 µM and an MIC [20] of no less than 256 µM. The MIC [21] was no less than 256 µM, the MIC [5] was 256 µM (≈ 562 µg/mL) and the MIC [22] was no less than 256 µM. The MIC [23] was no less than 256 µM, the MIC [24] was no less than 256 µM and the MIC [25] was no less than 64 µM. It also gave an MIC [26] of no less than 256 µM, an MIC [27] of 256 µM (≈ 562 µg/mL) and an MIC [18] of 32 µM (≈ 70.2 µg/mL).

In the case of NC(N)=NCCC[C@H](NC(=O)[C@H](CCCN=C(N)N)NC(=O)[C@H](CCCN=C(N)N)NC(=O)[C@@H](N)CCCN=C(N)N)C(=O)N[C@@H](Cc1c[nH]c2ccccc12)C(=O)N[C@@H](Cc1c[nH]c2ccccc12)C(=O)N[C@@H](Cc1c[nH]c2ccccc12)C(=O)N[C@@H](Cc1c[nH]c2ccccc12)C(=O)O [RRRRWWWW], the MIC [3] is reported as 46.1 µM (≈ 64 µg/mL), the MIC [28] is reported as 15.6 µM (≈ 21.7 µg/mL) and the MIC [29] is reported as 31.3 µM (≈ 43.4 µg/mL). The MIC [30] was 23.1 µM (≈ 32 µg/mL).
